Values after ≈ are worked out from the molar mass of the structure shown. Values joined by “and” are separate entries in the source; they are usually repeats but may differ in a detail not shown here. Equal entries are not always repeated. Where two headings read alike, the source gives them in different places.
Assays:
[1] = system: E. faecium CL 5053 (VanA); assay: microbe, parasite or virus in culture; assay type: cell-based; design: CL5053 (in vitro testing): unit not given here; conditions: for CL5053 (in vitro testing): Tables 7 and 8, unit not given
In short: (§1)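 Twofold broth microdilution per modified NCCLS M7-A4, 35 °C. Enterococci and VISA/MRSA in BHI (VISA/MRSA precultured in TSB + 10% HS), E. coli in MH II. Inocula ~1-5×10^6 CFU/ml for enterococci, ~3-7×10^5 CFU/ml otherwise. MIC is the lowest concentration with no visible growth, read at 18-20 hr (E. coli) or 22-24 hr.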

[2] = system: E. coli ASP #49 (envA-); assay: In vitro MIC panel assay (NCCLS broth microdilution); assay type: cell-based; conditions: E. coli ASP #49 (envA−); MH II broth
Text: (§2) National Committee for Clinical Laboratory Standards (NCCLS) guidelines [Methods for Dilution Antimicrobial Susceptibility Tests for Bacteria that Grow Aerobically-Fourth Edition; Approved Standard (NCCLS Document M7-A4, January 1997)] are used to establish the assay, although variations are made to optimize the published method according to the specific needs of the present investigation.
(§3) The test panel currently includes eight enterococci and 13 staphylococci, which are selected based upon their antibiotic susceptibility profiles. The methicillin-sensitive Staphylococcus aureus (MSSA) strain MB2985 (Smith isolate) is used to assesses the potential for serum protein binding of the compounds. The paired Gram-negative strains ASP #49 (envA-) and ASP #50 (envA+) (M. Salvatore/N. Lee) are included to judge membrane effects. Table 3 presents a detailed description of the strains included in the panel, including some of the sources of the strains of bacteria.
(§4) The glycopeptide antibiotic teicoplanin is included whenever possible.
(§5) TSB, containing 10% HS* for vancomycin intermediate S. aurcus/methicillin-resistant S. aureus (VISA/MRSA) strains, is inoculated from an appropriate source (frozen broth or agar slant) and grown approximately 17 hr at 35° C. with shaking at 220 rpm. Cultures are grown in tubes with a volume of 5 ml for enterococci and 2 ml for all other strains.
(§6) Four milliliter (4 ml) overnight culture is added to 36 ml physiological saline to obtain tenfold dilutions (enterococci). Overnight culture (0.4 ml) is added to 39.6 ml saline to obtain 100-fold dilutions (all strains except enterococci). Diluted cultures are maintained on ice until time of inoculation of test plates.
(§7) The number of CFU/mL is determined on BHI agar plates, although this is not done routinely because titers of overnight cultures are relatively constant. The test media include: • BHI for enterococci and VISA/MRSA; • MH II (i.e., cation-adjusted Mueller-Hinton broth) for MRS, MSS and E. coli.; • MH II+HSA for MSSA is prepared as follows: • a. 2×MHII+86mg/ml HSA • b. Dissolve 4.3 g HSA in 50 ml autoclaved 2x MH II. • c. pH to 7.0 by adding 2M MOPS, sodium. • d. Filter sterilize using 0.22 μm Coming cellulose acetate filter, used because of reported low protein binding. • e. 1×MH II+43 mg/ml HSA • f. Dilute the 2×medium twofold and filter as above. 5.8.6. Preparation of Test Plates
(§8) Using a Denley liquid handling system (or similar automatic device), 100 μ1×medium is added to each well in columns 2-12 of a 96-well microtiter dish. Using a multichannel pipettor, 100 μl 2×medium is added to each well in column 1. Plates may be filled on the day prior to assay, wrapped in plastic bags and refrigerated.
(§9) Vancomycin, Schering 29482, and teicoplanin are prepared on a weight per volume basis using 10 mM 3-(N-morpholino)propane-sulfonic acid (MOPS) buffer pH 7. Test compounds are received in solution in appropriate solvent (typically as 1 mg/ml in DMSO) or are dissolved in appropriate solvent prior to further dilution in 10 mM MOPS buffer, ph7. Consistent with NCCLS guidelines, antibiotics are handled aseptically but are not otherwise sterilized.
(§10) 100 μl appropriately diluted antibiotic solution is added to the first well of the designated row of the 96-well microtiter dish and serially diluted by twofold across the row using the Denley liquid handling system. With the aid of a Dynatech NEC 2000 inoculator, each well of the microtiter dish is inoculated with 1.5 μl diluted overnight culture, yielding approximately 1-5×10^6 CFU/ml for enterococci and approximately 3-7×10^5 CFU/ml for all other strains. Dishes are placed in stacks of no more than five, wrapped in plastic bags and incubated at 35° C. • Indication of result(s) type (% INH, IC50, Zone size, etc.) • MIC=minimum inhibitory concentration ps 5.8.9. Interpretation of the Results on the Basis of Activity […]

[3] = system: E. coli ASP #50 (envA+); assay: as above; assay type: cell-based; conditions: E. coli ASP #50 (envA+); MH II broth
Text: as §2, §3, §4, §5, §6, §7, §8, §9, §10

[4] = system: MRCNS CL 202 (S. haem.); assay: as above; assay type: cell-based; conditions: MRCNS CL 202 (S. haem.); MH II broth
Text: as §2, §3, §4, §5, §6, §7, §8, §9, §10

[5] = system: MRCNS CL 3069 (S. epi.); assay: as above; assay type: cell-based; conditions: MRCNS CL 3069 (S. epi.); MH II broth
Text: as §2, §3, §4, §5, §6, §7, §8, §9, §10

[6] = system: MRSA MH 76; assay: as above; assay type: cell-based, Staphylococcus aureus; conditions: MRSA MH 76; MH II broth
Text: as §2, §3
The glycopeptide antibiotic teicoplanin is included whenever possible. […]
The number of CFU/mL is determined on BHI agar plates, although this is not done routinely because titers of overnight cultures are relatively constant. […]

[7] = system: Staphylococcus aureus strain MB2985; assay: In vivo mouse methicillin-sensitive Staphylococcus aureus septicemia protection; design: species or system ICR female mice
Description: Selected compounds of the invention are tested in an in vivo mouse model. Single dose subcutaneous antibiotic protection from septicemic infections is measured as described by Gill, C. J., J. J. Jackson, L. Gerckens, B. Pelak, R. Thompson, J. Sundelof, H. Kropp and H. Rosen. Antimicrob. Agents Chemother. 42:1996-2001 (1998). Survival is monitored for seven days. ED50's and LD50's are determined by the method of Knudsen and Curtis. J. Am. Stat. Assoc. 42:282-296 (1947). Septicemia is induced in 20 gram ICR (derived from CD-I) female mice by intraperitoneal infection with Staphylococcus aureus strain MB2985. Infection is given i.p. in Brain Heart Broth (BHB) at an infectious inoculum of 1.8×10^7 cfu/mouse. Drug is administered subcutaneously immediately after the infection is initiated.

[8] = system: S. aureus MB 2985; assay: MIC by microdilution in Mueller-Hinton broth (in vivo study); assay type: cell-based; conditions: inoculum 1.4 × 10^5 cfu/mL in cation adjusted MHB
Description: The MIC is determined by microdilution in Mueller-Hinton broth (MHB) according to the National Committee for Clinical Laboratory Standards guidelines after incubation for 24 hours. Enterococci are tested in cation-supplemented Mueller-Hinton broth at 1.4×10^5 cfu/ml. MIC is defined as the lowest concentration of antibiotic, which inhibits visible growth.

[9] = Pharmacokinetic studies; assay type: in vivo; conditions: compared with compound 2; stated as and/or
[10] = system: E. faecium CL 4931 (VanA); assay: microbe, parasite or virus in culture; assay type: cell-based; design: CL4931 (in vitro testing): unit not given here; conditions: for CL4931 (in vitro testing): Tables 7 and 8, unit not given; for MIC, CL4931: E. faecium CL 4931 (VanA)
In short: as §1

[11] = system: E. faecium CL 5242 (VanA); assay: microbe, parasite or virus in culture; assay type: cell-based; design: CL5242 (in vitro testing): unit not given here; conditions: for CL5242 (in vitro testing): Tables 7 and 8, unit not given; for MIC, CL5242: E. faecium CL 5242 (VanA)
In short: as §1

[12] = system: E. faecalis CL 4877 (VanB); assay: microbe, parasite or virus in culture; assay type: cell-based; design: CL4877 (in vitro testing): unit not given here; conditions: for CL4877 (in vitro testing): Tables 7 and 8, unit not given; for MIC, CL4877: E. faecalis CL 4877 (VanB)
In short: as §1

[13] = system: CL 4931, CL 5053, CL 5242 and CL 4877; assay type: cell-based, E. faecium, E. faecalis; design: unit not given here
In short: as §1

[14] = mouse septicemia, S. aureus 2985 i.p. 1.8 × 10^7 cfu/mouse, single s.c. dose at 0 hr, survival seven days
[15] = mean of CL4931, CL5053, CL5242, CL4877, unit not given
[16] = Table 9, E. faecium CL 5053 (VanA)
[17] = Table 9, mean MIC over CL4931, CL5053, CL5242, CL4877

Row | Compound | CL4931 (in vitro testing) [10] | CL5053 (in vitro testing) [1] | CL5242 (in vitro testing) [11] | CL4877 (in vitro testing) [12] | Mean [13, 15] | MIC, CL4931 ([10]; Table 9) | MIC, CL5053 [1, 16] | MIC, CL5242 ([11]; Table 9) | MIC, CL4877 ([12]; Table 9) | Mean [13, 17] | other results
1 | CNC(CC(C)C)C(=O)NC1C(=O)NC(CC(N)=O)C(=O)NC2C(=O)NC3C(=O)NC(C(=O)NC(C(=O)O)c4cc(O)cc(O)c4-c4cc3ccc4O)C(O)c3ccc(c(Cl)c3)Oc3cc2cc(c3OC2OC(CN)C(O)C(O)C2OC2CC(C)(NCc3ccc(OCc4ccc(Cl)c(Cl)c4)cc3)C(O)C(C)O2)Oc2ccc(cc2Cl)C1O (stereo not shown) [Compound 13, Glucos-6-amino-N-4-(3,4-dichlorobenzyloxy)benzyl-vancosamino-vancomycin] |  |  |  |  |  |  |  |  |  |  | MIC ([1]; E. faecium CL 5053 (VanA), BHI broth): 1 mg/L and 2 mg/L; MIC [2]: 16 mg/L and 8 mg/L; MIC [3]: >64 mg/L and 64 mg/L; MIC [4]: 0.12 mg/L and 0.06 mg/L; MIC [5]: 0.06 mg/L and 0.03 mg/L; MIC [6]: 0.25 mg/L (≈ 0.146 µM); ED50/MIC ([7]; S. aureus 2985, ratio of s.c. ED50 to MIC): 3.12; ED0 (s.c.) [7, 14]: 0.195 mg/kg; ED50 (s.c.) [7, 14]: 0.390 mg/kg; ED100 (s.c.) [7, 14]: 0.780 mg/kg; MIC [8]: 0.125 mg/L (≈ 0.073 µM); bioavailability [9]: unexpectedly greater bioavailability; clearance rate [9]: faster clearance rate; tissue distribution [9]: more favorable tissue distribution
2 | CNC(CC(C)C)C(=O)NC1C(=O)NC(CC(N)=O)C(=O)NC2C(=O)NC3C(=O)NC(C(=O)NC(C(=O)O)c4cc(O)cc(O)c4-c4cc3ccc4O)C(O)c3ccc(c(Cl)c3)Oc3cc2cc(c3OC2OC(CN)C(O)C(O)C2OC2CC(C)(NCC(=O)Oc3ccc(-c4ccc(Cl)c(Cl)c4)cc3)C(O)C(C)O2)Oc2ccc(cc2Cl)C1O (stereo not shown) [Compound 189] | 32 | >32 | 32 | 32 | 32 |  |  |  |  |  | 
3 | CNC(CC(C)C)C(=O)NC1C(=O)NC(CC(N)=O)C(=O)NC2C(=O)NC3C(=O)NC(C(=O)NC(C(=O)O)c4cc(O)cc(O)c4-c4cc3ccc4O)C(O)c3ccc(c(Cl)c3)Oc3cc2cc(c3OC2OC(CNCc3ccccc3)C(O)C(O)C2OC2CC(C)(NCc3ccc(-c4ccc(Cl)cc4)cc3)C(O)C(C)O2)Oc2ccc(cc2Cl)C1O (stereo not shown) [Compound 190] |  |  |  |  |  | 8 mg/L (≈ 4.6 µM) | 8 mg/L (≈ 4.6 µM) | 2 mg/L (≈ 1.15 µM) | 4 mg/L (≈ 2.3 µM) | 5.5 | 
4 | C=Cc1ccccn1 [Compound 191, 2-pyridylethylene] |  |  |  |  |  | 16 mg/L (≈ 152 µM) | 16 mg/L (≈ 152 µM) | 4 mg/L (≈ 38 µM) | 16 mg/L (≈ 152 µM) | 13.0 | 
5 | CNC(CC(C)C)C(=O)NC1C(=O)NC(CC(N)=O)C(=O)NC2C(=O)NC3C(=O)NC(C(=O)NC(C(=O)O)c4cc(O)cc(O)c4-c4cc3ccc4O)C(O)c3ccc(c(Cl)c3)Oc3cc2cc(c3OC2OC(CNCC3CCCO3)C(O)C(O)C2OC2CC(C)(NCc3ccc(-c4ccc(Cl)cc4)cc3)C(O)C(C)O2)Oc2ccc(cc2Cl)C1O (stereo not shown) [Compound 192] |  |  |  |  |  | 16 mg/L (≈ 9.23 µM) | 16 mg/L (≈ 9.23 µM) | 4 mg/L (≈ 2.31 µM) | 16 mg/L (≈ 9.23 µM) | 13.0 | 
6 | teicoplanin [reference compound] | 256 | >1024 | 256 | 0.5 | 170.8 | 256 mg/L | > 1020 mg/L | 256 mg/L | 0.5 mg/L | 128.1 | MIC, CL4931 ([10]; Table 10): 256 mg/L; MIC, CL5053 ([1]; Table 10, E. faecium CL 5053 (VanA)): > 1020 mg/L; MIC, CL5242 ([11]; Table 10): 256 mg/L; MIC, CL4877 ([12]; Table 10): 16 mg/L; Mean ([13]; Table 10, mean MIC over CL4931, CL5053, CL5242, CL4877): 256.0

Source: patent US6841661B2, “Glycopeptide antibacterial compounds, compositions containing same and methods of using same” (Princeton Univerisity, priority 1999, dated 2005)
